Columns and labels:
[1] = system: beta-catenin; test: qRT-PCR gene expression in BC CML CD34+ cells in stromal co-culture; type: cell-based, human; conditions: imetelstat monotherapy 5 μM for 14 days vs mismatch control
Protocol: (§1) FIG. 7 illustrates supplementary FIG. 2, where gene expression qRT-PCR analyses of human CD34^+ cells sorted from BC CML patient samples (n=3) and MF patient samples (n=5) that were co-cultured with SL/M2 stromal cells and treated with mismatch control or imetelstat at 5 μM for 14 days.

[2] = system: ADAR1; test: as above; type: cell-based, human; conditions: imetelstat monotherapy 5 μM for 14 days vs mismatch control
Protocol: as §1

[3] = system: TERT; test: RNA-seq of human CD45+ cells from treated BC CML mice; type: in vivo; conditions: surviving human CD45+ cells; imetelstat compared with vehicle; p<0.01
Protocol: For gene expression and RNA editing analysis, RNA editing sites were identified in REDIportal^34 (see the Supplementary Appendix). […] Gene Set Enrichment Analysis was performed with the Bioconductor package GSVA (see the Supplementary Appendix)^36. For in vitro and in vivo experiments, the Student's t-test was utilized to evaluate statistical significance of normally distributed data and Wilcoxon tests were utilized for non-normally distributed data with a p value of <0.05.
FastQC (Andrews, S. & Others. FastQC: a quality control tool for high throughput sequence data. (2010) was used to perform quality control on raw fastq files. Sequencing reads were aligned to the human genome (hg19) using the STAR v2.5.1a aligner^19. RSEM^20 v1.3.0 and GENCODE annotation (genocode.v19.annotation.gtf) were used for read and transcript quantification, and R BioConductor packages edgeR^21 and Limma^22 were used to implement the limma-voom^23 method for differential expression analysis at both the gene and transcript levels. The experimental design was modeled upon disease and tissue type (˜0+disease; ˜0+tissue; ˜0+disease+tissue). Significance was defined by using an adjusted p-value cut-off of 0.05 after multiple testing correction using a moderated t-statistic in Limma. […] Gene Set Enrichment Analysis was performed with the Bioconductor package GSVA^25.
FIG. 5C. […]

## imetelstat
[1]
  beta-catenin self-renewal gene expression by qRT-PCR: ineffective
[2]
  ADAR1 gene expression by qRT-PCR: ineffective
[3]
  TERT expression by RNA-seq: reduction

From patent publication US20240108734A1, “METHODS FOR TREATING AND AMELIORATING CANCER” (The Regents of the University of California, priority 2021, published 2024)
